The results in this text go back to US6740673B2, “Quarternary ammonium compounds” (UCB Farchim SA, priority 1998, dated 2004).

The subject of this experiment is cough responses induced by citric acid (1M) aerosol in conscious guinea-pigs. Put plainly: Antitussive activity against citric acid aerosol-induced cough in conscious guinea-pigs. Type of experiment: in vivo, guinea-pig (male albino Dunkin-Hartley). The following applies: aerosol pre-treatment at 10.0 mg/ml immediately before citric acid (1M) exposure; for inhibition of cough responses compared with vehicle: vs vehicle (distilled water), 15 minute observation period. From the text: The following method was one of the general methods available to determine the antitussive activity of the compounds of the present invention.
Male albino Dunkin-Hartley strain guinea-pigs (weight 300-400 g) were supplied by Harlan UK Ltd., Bicester, Oxon, UK.
The method used was modified from that described by Adcock J. J., Schneider C. and Smith T. W., “Effects of Morphine and a Novel Opioid Pentapeptide BW443C, on Cough, Nociception and Ventilation in the Unanaesthetized Guinea-pig”, Br. J. Pharmacol., 93, 93-100 (1988). Individual conscious guinea-pigs were placed unrestrained into a sealed purpose built perspex exposure chamber (3,000 cm^3 volume) and allowed to acclimatize prior to aerosol administration.
Cylinder air was introduced into the exposure chamber at a flow rate of 1 liter/min, maintained by a needle valve and monitored by a rotameter. From the rotameter the air passed through the cup of an ultrasonic nebulizer (DeVilbis UltraNeb 2000) which was used to generate aerosols of drug or citric acid at 0.15 ml/min. A Fleisch pneumotachograph, connected to a differential pressure transducer (Grass model PT5) was attached to the outflow from the exposure chamber and provided a measurement of airflow from the chamber. […]
Cough responses were induced by exposure to an aerosol of citric acid (1M) for 10 minutes. Animals were continuously monitored by trained observer, and the number of coughs were counted during a 15 minute period from commencement of the citric acid aerosol administration. […]
The three types of response were differentiated primarily by sound and visual observation. […] Data recorded for individual guinea-pigs on the Poh-Ne-Mah system was stored on an optical disk. Each cough was marked on the Grass polygraph paper trace, and from these record numbers, frequency and time of onset of coughs were determined. […]
Quantities of drugs were weighed out and dissolved in a vehicle. […] The sequence of pre-treatment administration was determined according to a 4×4 Latin Square design. […]

For `C[N+](C)(CC(=O)Nc1ccccc1)CC(=O)N1CCc2ccccc21.[Cl-]` [Compound 2, N-[(1-Indolinyl)carbonylmethyl]-N-(phenylcarbamoylmethyl) dimethylammonium chloride], the “inhibition of cough responses compared with vehicle” value came to 56%. Turning to `CC[N+](CC)(CC)CC(=O)N1CCc2ccccc21` [Compound 3, N-[(1-Indolinyl)carbonylmethyl]triethylammonium chloride], the “inhibition of cough responses compared with vehicle” value is on record as 36%. Also, the “prolongation of mean latency of cough onset” value (time to first recorded cough) turned out to be 2.5 fold.
